Reference: PMC9304322, “Targeting retinoic acid receptor alpha-corepressor interaction activates chaperone-mediated autophagy and protects against retinal degeneration” (Nature Communications, 2022)

Test system: NIH3T3 cells
Test: Microarray transcriptional changes
Format: cell-based, mouse
Parameters: Ratio of expression relative to untreated cells, Crtam (NM_019465) / Ratio of expression relative to untreated cells, 4930594C11Rik (NR_024017) / Ratio of expression relative to untreated cells, Non-coding chr6:36765550-36793825_F / Ratio of expression relative to untreated cells, Anti-sense ENSMUST00000097448 / Ratio of expression relative to untreated cells, Non-coding chr1:64232564-64349617_R / Ratio of expression relative to untreated cells, Foxa2 (NM_010446) / Ratio of expression relative to untreated cells, Non-coding chr15:83266264-83294664_F / Ratio of expression relative to untreated cells, Nqo1 (NM_008706) / Ratio of expression relative to untreated cells, Gsta4 (NM_010357) / Ratio of expression relative to untreated cells, E330014E10Rik (NM_001122668) / Ratio of expression relative to untreated cells, AU017674 (CK334688) / Ratio of expression relative to untreated cells, Defb12 (NM_152802) / Ratio of expression relative to untreated cells, Non-coding chr1:138570107-138632310_F / Ratio of expression relative to untreated cells, Non-coding chr16:39984031-40081556_R / Ratio of expression relative to untreated cells, Gm5106 (XR_168418) / Ratio of expression relative to untreated cells, Ushbp1 (NM_181418) / Ratio of expression relative to untreated cells, Non-coding chr11:70196232-70203307_R / Ratio of expression relative to untreated cells, Eno4 (NM_178689) / Ratio of expression relative to untreated cells, Non-coding chr13:64044376-64045368_R / Ratio of expression relative to untreated cells, Dsg4 (AY170623) / Ratio of expression relative to untreated cells, Stx2 (NM_007941) / Ratio of expression relative to untreated cells, Non-coding chr12:52944867-52971992_R / Ratio of expression relative to untreated cells, Htr1b (NM_010482) / Ratio of expression relative to untreated cells, Non-coding chr16:44717531-44724206_F / Ratio of expression relative to untreated cells, Non-coding chr5:54053328-54053870_F: unit not given here
Conditions: 20μM for 24 h; for Ratio of expression relative to untreated cells, 4930594C11Rik (NR_024017) / Ratio of expression relative to untreated cells, Anti-sense ENSMUST00000097448 / Ratio of expression relative to untreated cells, Crtam (NM_019465) / Ratio of expression relative to untreated cells, Defb12 (NM_152802) / Ratio of expression relative to untreated cells, Dsg4 (AY170623) / Ratio of expression relative to untreated cells, Eno4 (NM_178689) / Ratio of expression relative to untreated cells, Foxa2 (NM_010446) / Ratio of expression relative to untreated cells, Gm5106 (XR_168418) / Ratio of expression relative to untreated cells, Htr1b (NM_010482) / Ratio of expression relative to untreated cells, Non-coding chr1:64232564-64349617_R / Ratio of expression relative to untreated cells, Non-coding chr5:54053328-54053870_F / Ratio of expression relative to untreated cells, Non-coding chr6:36765550-36793825_F / Ratio of expression relative to untreated cells, Non-coding chr11:70196232-70203307_R / Ratio of expression relative to untreated cells, Non-coding chr12:52944867-52971992_R / Ratio of expression relative to untreated cells, Non-coding chr13:64044376-64045368_R / Ratio of expression relative to untreated cells, Non-coding chr15:83266264-83294664_F / Ratio of expression relative to untreated cells, Non-coding chr16:39984031-40081556_R / Ratio of expression relative to untreated cells, Non-coding chr16:44717531-44724206_F / Ratio of expression relative to untreated cells, Ushbp1 (NM_181418) / Ratio of expression relative to untreated cells, AU017674 (CK334688) / Ratio of expression relative to untreated cells, E330014E10Rik (NM_001122668) / Ratio of expression relative to untreated cells, Gsta4 (NM_010357) / Ratio of expression relative to untreated cells, Non-coding chr1:138570107-138632310_F / Ratio of expression relative to untreated cells, Nqo1 (NM_008706): NIH3T3; for Ratio of expression relative to untreated cells, 4930594C11Rik (NR_024017) / Ratio of expression relative to untreated cells, Anti-sense ENSMUST00000097448 / Ratio of expression relative to untreated cells, Crtam (NM_019465) / Ratio of expression relative to untreated cells, Defb12 (NM_152802) / Ratio of expression relative to untreated cells, Dsg4 (AY170623) / Ratio of expression relative to untreated cells, Eno4 (NM_178689) / Ratio of expression relative to untreated cells, Foxa2 (NM_010446) / Ratio of expression relative to untreated cells, Gm5106 (XR_168418) / Ratio of expression relative to untreated cells, Htr1b (NM_010482) / Ratio of expression relative to untreated cells, Non-coding chr1:64232564-64349617_R / Ratio of expression relative to untreated cells, Non-coding chr5:54053328-54053870_F / Ratio of expression relative to untreated cells, Non-coding chr6:36765550-36793825_F / Ratio of expression relative to untreated cells, Non-coding chr11:70196232-70203307_R / Ratio of expression relative to untreated cells, Non-coding chr12:52944867-52971992_R / Ratio of expression relative to untreated cells, Non-coding chr13:64044376-64045368_R / Ratio of expression relative to untreated cells, Non-coding chr15:83266264-83294664_F / Ratio of expression relative to untreated cells, Non-coding chr16:39984031-40081556_R / Ratio of expression relative to untreated cells, Non-coding chr16:44717531-44724206_F / Ratio of expression relative to untreated cells, Ushbp1 (NM_181418): direction Down; for Ratio of expression relative to untreated cells, AU017674 (CK334688) / Ratio of expression relative to untreated cells, E330014E10Rik (NM_001122668) / Ratio of expression relative to untreated cells, Gsta4 (NM_010357) / Ratio of expression relative to untreated cells, Non-coding chr1:138570107-138632310_F / Ratio of expression relative to untreated cells, Nqo1 (NM_008706): direction Up
Procedure: Total RNA of the treated cells was extracted using TRIzol (Invitrogen) and purified with RNeasy chromatography (Qiagen). Cy3-labeled RNA (0.6 μg) from each condition was hybridized to Agilent Mouse 8x60K. Data were processed using the oligo package and normalized using Robust Multiarray Average (RMA) method. […] Pathway analysis was performed using the STRING database ([…]).

Compound	Ratio of expression relative to untreated cells, Stx2 (NM_007941)	Ratio of expression relative to untreated cells, 4930594C11Rik (NR_024017)	Ratio of expression relative to untreated cells, Anti-sense ENSMUST00000097448	Ratio of expression relative to untreated cells, Crtam (NM_019465)	Ratio of expression relative to untreated cells, Defb12 (NM_152802)	Ratio of expression relative to untreated cells, Dsg4 (AY170623)	Ratio of expression relative to untreated cells, Eno4 (NM_178689)	Ratio of expression relative to untreated cells, Foxa2 (NM_010446)	Ratio of expression relative to untreated cells, Gm5106 (XR_168418)	Ratio of expression relative to untreated cells, Htr1b (NM_010482)	Ratio of expression relative to untreated cells, Non-coding chr1:64232564-64349617_R	Ratio of expression relative to untreated cells, Non-coding chr5:54053328-54053870_F	Ratio of expression relative to untreated cells, Non-coding chr6:36765550-36793825_F	Ratio of expression relative to untreated cells, Non-coding chr11:70196232-70203307_R	Ratio of expression relative to untreated cells, Non-coding chr12:52944867-52971992_R	Ratio of expression relative to untreated cells, Non-coding chr13:64044376-64045368_R	Ratio of expression relative to untreated cells, Non-coding chr15:83266264-83294664_F	Ratio of expression relative to untreated cells, Non-coding chr16:39984031-40081556_R	Ratio of expression relative to untreated cells, Non-coding chr16:44717531-44724206_F	Ratio of expression relative to untreated cells, Ushbp1 (NM_181418)	further results
CC(=O)Nc1ccc(C2=Nc3ccc(Cl)cc3OC2)cc1 [CA77]	0.09232	0.0118	0.02606	0.02383	0.01656	0.02136	0.2317	0.03773	0.09934	0.04553	0.03926	0.08612	0.01829	0.1429	0.03376	0.1362	0.06682	0.07815	0.03891	0.1648	Ratio of expression relative to untreated cells, AU017674 (CK334688): 22.5451; Ratio of expression relative to untreated cells, E330014E10Rik (NM_001122668): 33.8974; Ratio of expression relative to untreated cells, Gsta4 (NM_010357): 18.7705; Ratio of expression relative to untreated cells, Non-coding chr1:138570107-138632310_F: 6.319; Ratio of expression relative to untreated cells, Nqo1 (NM_008706): 4.968
Clc1ccc2c(c1)OCC(c1ccc(-c3ccccc3)cc1)=N2 [CA39]	0.118	0.02758	0.03251	0.02443	0.01369	0.04187	0.1079	0.05303	0.2892	0.02191	0.044	0.08567	0.01728	0.1333	0.02965	0.157	0.07415	0.3908	0.01733	0.1898	Ratio of expression relative to untreated cells, AU017674 (CK334688): 18.0101; Ratio of expression relative to untreated cells, E330014E10Rik (NM_001122668): 1.584; Ratio of expression relative to untreated cells, Gsta4 (NM_010357): 2.331; Ratio of expression relative to untreated cells, Non-coding chr1:138570107-138632310_F: 7.863; Ratio of expression relative to untreated cells, Nqo1 (NM_008706): 1.3
